Laboratory results taken from patent US9994915B2, “miR-211 expression and related pathways in human melanoma” (Sanford-Burnham Medical Research Institute, priority 2010, dated 2018).

Key:
Assay type in all cases: cell-based, human
[1] = test system: WM1552C melanoma cells; assay: Matrigel invasion chamber assay; conditions: 48 hours
Experimental: BD BioCoat™ growth factor reduced insert plates (Matrigel™ Invasion Chamber 12 well plates) were prepared by rehydrating the BD Matrigel™ matrix coating in the inserts with 0.5 mls of serum-free Complete Tu media for two hours at 37° C. The rehydration solution was carefully removed from the inserts, 0.5 ml Complete Tu (2% FBS) was added to the lower wells of the plate, and 2.5×10^4 cells suspended in 0.5 ml of serum-free Complete Tu media were added to each insert well. WM1552C/211(800) cells were additionally transfected with the Anti-miR miRNA Inhibiter for hsa-miR-211 as well as Negative Control #1 (Ambion) (miR-Scramble) at a concentration of 100 nM using siPORT NeoFX (Ambion). […] The number of migrating tumor cells was counted from each of five images per cell line (including miR Inhibiter transfected cells) in the central area of the filter. […] Data are expressed as the percent invasion through the membrane relative to the migration of WM1552C (Wild Type) through the membrane.
The impact of miR-211 expression on the invasive properties of WM1552C. WM1552C/211(400) and WM1552C/211(800) cells, along with WM1552C/VO, WM1552C/KC KO, and untransfected WM1552C was determined. […]
2.5×10^5 cells WM1552C/211(800) cells were seeded into wells of a 6-well plate. […] After 48 hours, the cells were harvested by trypsinization and counted using an automated cell counter (Cellometer®, Nexcelom Bioscience). […]

[2] = test system: KCNMA1 transcript; assay: qRT-PCR of KCNMA1 transcript in WM1552C lines; conditions: WM1552C/211(400)
Experimental: Expression levels of all statistically significant and differentially expressed mRNAs and miRNAs were confirmed by qRT-PCR using TaqMan® expression kits (Applied Biosystems) using multiple technical and biological replicates. GAPDH was used as the internal reference probe for normalization of expression values of mRNA, and RNU48 was used for normalization of miRNA. RNA analysis by Northern blots used 20 μg of total RNA concentrated from each sample (melanoma cell lines and melanocytes), separated on 15% urea denaturing polyacrylamide gels by electrophoresis. Gels were electroblotted to nylon membranes, cross-linked by UV, prehybridized in ULTRAhyb®-Oligo (Ambion) for 30 minutes at 42° C., and hybridized with 5′-biotinylated anti-miRNA DNA oligonucleotides (100 nM each) at 42° C. overnight, washed, and detected by chemiluminescence (Brightstar® detection kit, Ambion). Anti-U6 probes were used as a reference control (at 10 pM).
qRT-PCR analyses were then run to determine whether the induced expression of miR-211 in melanoma cells could reduce KCNMA1 transcript levels. […] To further confirm our observations, we measured the correlation between miR-211 expression and KCNMA1 protein levels (FIG. 6D). […] Melanocytes were transfected with anti-miR-211 inhibitors (Exiqon) and the protein expression of KCNMA1 was measured.

[3] = test system: PDK4; assay: proteomics (mass spectrometric) data, PDK4 expression; conditions: miR-211-expressing melanoma cells
Experimental: Deep-sequencing (RNA-seq) and proteomics (mass spectrometry) data from two melanoma cell lines A375 and WM1552C, each expressing miR-211 or the empty vector, were generated. […] Energy consumption was investigated in miR-211-expressing cells. Using the Seahorse XF96 Analyzer, it was determined that miR-211-expressing melanoma cells (A375) consumed nearly double the amount of oxygen as control cells expressing the empty vector (FIG. 35). […] Finally, we measured the level of hypoxia-inducible factor 1 alpha (HIF-1α) in miR-211-expressing cells. HIF-1α expression was reduced by miR-211 expression which is an indication of cellular respiration changes (FIG. 37).
(§1) This target was further confirmed by the cleavage assay, and the downregulation was verified by western blot analysis (FIG. 38). Similarly, peroxisome proliferator-activated receptor-γ coactivator (PGC1α) was identified by the proteomics data and validated by western blot analysis. PGC1α is a low express gene in A375 cells, but it is been targeted by miR-211 according to target cleavage and qPCR results. Finally, insulin-like growth factor-binding protein 5 (IGFBP5) was identified through the RNA-seq data and results are illustrated in FIG. 34.

[4] = test system: PDK4 protein; assay: western blot of PDK4 protein; conditions: miR-211-expressing melanoma cells, gel (FIG. 38)
Description: as §1

miR-211: pre-miR-211 sequence stably expressed from plasmid pcDNA4/miR-211 in melanoma cells; mature sequence UUCCCUUUGUCAUCCUUCGCCU (SEQ ID NO: 15) (listed as Homo sapiens)
migrated less than WM1552C (invasion) ([1]; WM1552C/211(400)): ~40% | migrated less than WM1552C (invasion) ([1]; WM1552C/211(800)): ~60% | KCNMA1 transcript expression vs wild type WM1552C [2]: down-regulates | PDK4 expression [3]: heavily downregulated | PDK4 protein expression [4]: virtually undetectable
